What was measured:
[1] = test system: Monographella nivalis (Microdochium nivale); assay: Monographella nivalis (Microdochium nivale) / liquid culture (foot rot cereals); assay type: cell-based; conditions: growth inhibition photometrically 4-5 days after application, read-out: control of Monographella nivalis
In short: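 Fungal conidia mixed directly into potato dextrose broth and added to test compound delivered in DMSO. Incubated at 24° C; growth inhibition read photometrically 4-5 days after application.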

[2] = test system: Mycosphaerella graminicola (Septoria tritici); assay: Mycosphaerella graminicola (Septoria tritici) / liquid culture (Septoria blotch); assay type: cell-based; conditions: Zymoseptoria tritici, growth inhibition photometrically 4-5 days after application, read-out: control of Mycosphaerella graminicola
In short: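 Conidia suspended in potato dextrose broth and added to test compound supplied in DMSO in 96-well plates. Incubated at 24 °C, and growth inhibition read photometrically 4-5 days after application.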

Alternaria solani = Alternaria solani / tomato / leaf disc (early blight); assay type: in vivo; conditions: foliar, tomato leaf disks, sprayed 2 days before inoculation, compared to untreated control
Protocol: Example B1: Alternaria solani/Tomato/Leaf Disc (Early Blight) Tomato leaf disks cv. Baby are placed on agar in multiwell plates (24-well format) and sprayed with the formulated test compound diluted in water. The leaf disks are inoculated with a spore suspension of the fungus 2 days after application. The inoculated leaf disks are incubated at 23° C./21° C.

[3] = test system: Mycosphaerella arachidis (Cercospora arachidicola); assay: Mycosphaerella arachidis (Cercospora arachidicola) / liquid culture (early leaf spot); assay type: cell-based; conditions: growth inhibition photometrically 4-5 days after application, read-out: control of Mycosphaerella arachidis
Protocol: Example B10: Mycosphaerella arachidis (Cercospora arachidicola)/Liquid Culture (Early Leaf Spot) Conidia of the fungus from cryogenic storage are directly mixed into nutrient broth (PDB potato dextrose broth). After placing a (DMSO) solution of test compound into a microtiter plate (96-well format), the nutrient broth containing the fungal spores is added. The test plates are incubated at 24° C. and the inhibition of growth is determined photometrically 4-5 days after application.

Pyrenophora teres = Pyrenophora teres / barley / leaf disc preventative (net blotch); assay type: in vivo; conditions: foliar, barley leaf segments, inoculated 2 days after application
Protocol: Example B14: Pyrenophora teres/Barley/Leaf Disc Preventative (Net Blotch) Barley leaf segments cv. Hasso are placed on agar in a multiwell plate (24-well format) and sprayed with the formulated test compound diluted in water. The leaf segments are inoculated with a spore suspension of the fungus 2 days after application. The inoculated leaf segments are incubated at 20° C. and 65% rh under a light regime of 12 h light/12 h darkness in a climate cabinet and the activity of a compound is assessed as disease control compared to untreated when an appropriate level of disease damage appears in untreated check leaf segments (5-7 days after application).

[4] = test system: Glomerella lagenarium (Colletotrichum lagenarium); assay: Glomerella lagenarium (Colletotrichum lagenarium) / liquid culture (anthracnose); assay type: cell-based; conditions: Colletotrichum orbiculare, growth inhibition photometrically 3-4 days after application, read-out: control of Glomerella lagenarium
In short: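 Cryo-stored conidia in potato dextrose broth were added to test compound in DMSO. Plates were incubated at 24° C, and growth inhibition was read photometrically 3-4 days after application.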

[5] = test system: Blumeria graminis f. sp. tritici (Erysiphe graminis f. sp. tritici); assay: Blumeria graminis f. sp. tritici / wheat / leaf disc preventative (powdery mildew on wheat); assay type: in vivo; conditions: foliar, wheat leaf segments, inoculated 1 day after application
Protocol: Example B4: Blumeria graminis f. Sp. Tritici (Erysiphe graminis f. Sp. Tritici)/Wheat/Leaf Disc Preventative (Powdery Mildew on Wheat) Wheat leaf segments cv. Kanzler are placed on agar in a multiwell plate (24-well format) and sprayed with the formulated test compound diluted in water. The leaf disks are inoculated by shaking powdery mildew infected plants above the test plates 1 day after application. The inoculated leaf disks are incubated at 20° C. and 60% rh under a light regime of 24 h darkness followed by 12 h light/12 h darkness in a climate chamber and the activity of a compound is assessed as percent disease control compared to untreated when an appropriate level of disease damage appears on untreated check leaf segments (6-8 days after application).

Fusarium culmorum = assay: microbe, parasite or virus in culture; assay type: cell-based; conditions: read-out: control of Fusarium culmorum
[6] = test system: Botryotinia fuckeliana (Botrytis cinerea); assay: Botryotinia fuckeliana (Botrytis cinerea) / liquid culture (gray mould); assay type: cell-based; conditions: growth inhibition photometrically 3-4 days after application, read-out: control of Botryotinia fuckeliana
In short: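 Conidia suspended in Vogels broth and added to compound dispensed from DMSO. Incubated at 24°C, with growth inhibition measured photometrically 3–4 days later.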

Sclerotinia sclerotiorum = Sclerotinia sclerotiorum / liquid culture (cottony rot); assay type: cell-based; conditions: growth inhibition photometrically 3-4 days after application, read-out: control of Sclerotinia sclerotiorum
Protocol: Example B15: Sclerotinia sclerotiorum/Liquid Culture (Cottony Rot) Mycelia fragments of a newly grown liquid culture of the fungus are directly mixed into nutrient broth (PDB potato dextrose broth). After placing a (DMSO) solution of test compound into a microtiter plate (96-well format) the nutrient broth containing the fungal material is added. The test plates are incubated at 24° C. and the inhibition of growth is determined photometrically 3-4 days after application.

[7] = test system: Phaeosphaeria nodorum (Septoria nodorum); assay: Phaeosphaeria nodorum (Septoria nodorum) / wheat / leaf disc preventative (glume blotch); assay type: in vivo; conditions: Parastagonospora nodorum, foliar, wheat leaf segments, inoculated 2 days after application
Protocol: Example B8: Phaeosphaeria nodorum (Septoria nodorum)/Wheat/Leaf Disc Preventative (Glume Blotch) Wheat leaf segments cv. Kanzler are placed on agar in a multiwell plate (24-well format) and sprayed with the formulated test compound diluted in water. The leaf disks are inoculated with a spore suspension of the fungus 2 days after application. The inoculated test leaf disks are incubated at 20° C. and 75% rh under a light regime of 12 h light/12 h darkness in a climate cabinet and the activity of a compound is assessed as percent disease control compared to untreated when an appropriate level of disease damage appears in untreated check leaf disks (5-7 days after application).

Compound | inhibition of growth at 20 ppm [1] | inhibition of growth at 20 ppm [2] | pest or weed control at 200 ppm (Alternaria solani) | inhibition of growth at 20 ppm [3] | pest or weed control at 200 ppm (Pyrenophora teres) | inhibition of growth at 20 ppm [4] | pest or weed control at 200 ppm [5] | inhibition of growth at 20 ppm (Fusarium culmorum) | inhibition of growth at 20 ppm [6] | inhibition of growth at 20 ppm (Sclerotinia sclerotiorum) | pest or weed control at 200 ppm [7] | melting point
Cn1cc(C(C)(CNC(=O)c2nc(-c3ccc(F)cc3F)no2)c2cccc(Cl)n2)cn1 (centres unmarked) [Compound P-84, N-[2-(6-chloro-2-pyridyl)-2-(1-methylpyrazol-4-yl)propyl]-3-(2,4-difluorophenyl)-1,2,4-oxadiazole-5-carboxamide] | ≥ 80% | ≥ 80% | ≥ 80% | ≥ 80% | ≥ 80% | ≥ 80% | ≥ 80% | ≥ 80% | ≥ 80% | ≥ 80% | ≥ 80% | –
COc1cnc(Cl)nc1C(C)(CNC(=O)c1cc(-c2ccc(F)cc2F)on1)c1cnn(C)c1 (centres unmarked) [Compound P-65, N-[2-(2-chloro-5-methoxy-pyrimidin-4-yl)-2-(1-methylpyrazol-4-yl)propyl]-5-(2,4-difluorophenyl) isoxazole-3-carboxamide] | – | – | – | – | – | – | – | – | – | – | – | 145 to 151 °C
COc1ccc(C(C)(CNC(=O)c2cc(-c3ccc(F)cc3F)on2)c2cnn(C)c2)nc1Cl (centres unmarked) [Compound P-14, N-[2-(6-chloro-5-methoxy-2-pyridyl)-2-(1-methylpyrazol-4-yl)propyl]-5-(2,4-difluorophenyl) isoxazole-3-carboxamide] | – | ≥ 80% | – | – | – | – | – | – | – | – | – | 196 to 199 °C
Cn1ncc(C(C)(CNC(=O)c2nnc(-c3ccc(F)cc3F)s2)c2cccc(Cl)n2)c1Cl (centres unmarked) [Compound P-25, N-[2-(5-chloro-1-methyl-pyrazol-4-yl)-2-(6-chloro-2-pyridyl)propyl]-5-(2,4-difluorophenyl)-1,3,4-thiadiazole-2-carboxamide] | ≥ 80% | ≥ 80% | ≥ 80% | ≥ 80% | ≥ 80% | ≥ 80% | ≥ 80% | ≥ 80% | ≥ 80% | ≥ 80% | ≥ 80% | –
CO/N=C(\C)c1ccnc(C(C)(CNC(=O)c2cc(-c3ccc(F)cc3F)on2)c2cnn(C)c2)c1 (centres unmarked) [Compound P-72, 5-(2,4-difluorophenyl)-N-[2-[4-[(E)-N-methoxy-C-methyl-carbonimidoyl]-2-pyridyl]-2-(1-methylpyrazol-4-yl)propyl]isoxazole-3-carboxamide] | ≥ 80% | – | – | – | – | – | – | – | – | – | – | 88 to 90 °C
Cc1cc(-c2cc(C(=O)NCC(C)(c3cnn(C)c3)c3cccc(Cl)n3)no2)n(C)n1 (centres unmarked) [Compound P-85, N-[2-(6-chloro-2-pyridyl)-2-(1-methylpyrazol-4-yl)propyl]-5-(2,5-dimethylpyrazol-3-yl)isoxazole-3-carboxamide] | – | ≥ 80% | – | – | ≥ 80% | ≥ 80% | ≥ 80% | – | – | – | – | 182 to 184 °C
Cn1ncc(C(C)(CNC(=O)c2nnc(-c3ccc(F)cc3F)s2)c2cccc(C#N)n2)c1Cl (centres unmarked) [Compound P-118, N-[2-(5-chloro-1-methyl-pyrazol-4-yl)-2-(6-cyano-2-pyridyl)propyl]-5-(2,4-difluorophenyl)-1,3,4-thiadiazole-2-carboxamide] | ≥ 80% | ≥ 80% | – | ≥ 80% | – | ≥ 80% | – | ≥ 80% | ≥ 80% | ≥ 80% | – | –
Cn1cc(C(C)(CNC(=O)c2cc(-c3ccc(F)cc3F)on2)c2cccc(C3CC3)n2)cn1 (centres unmarked) [Compound P-102, N-[2-(6-cyclopropyl-2-pyridyl)-2-(1-methylpyrazol-4-yl)propyl]-5-(2,4-difluorophenyl) isoxazole-3-carboxamide] | ≥ 80% | ≥ 80% | – | ≥ 80% | ≥ 80% | ≥ 80% | – | ≥ 80% | ≥ 80% | ≥ 80% | ≥ 80% | –
Cn1cc(C(C)(CNC(=O)c2nnc(-c3ccc(F)cc3F)o2)c2cccc(Cl)n2)cn1 (centres unmarked) [Compound P-101, N-[2-(6-chloro-2-pyridyl)-2-(1-methylpyrazol-4-yl)propyl]-5-(2,4-difluorophenyl)-1,3,4-oxadiazole-2-carboxamide] | ≥ 80% | ≥ 80% | ≥ 80% | ≥ 80% | ≥ 80% | ≥ 80% | ≥ 80% | – | ≥ 80% | ≥ 80% | ≥ 80% | –
Cn1cc(C(C)(CNC(=O)c2cc(-c3ccc(F)cc3F)on2)c2cc(C#N)ccn2)cn1 (centres unmarked) [Compound P-63, N-[2-(4-cyano-2-pyridyl)-2-(1-methylpyrazol-4-yl)propyl]-5-(2,4-difluorophenyl) isoxazole-3-carboxamide] | – | ≥ 80% | – | – | ≥ 80% | – | – | – | – | – | – | 156 to 158 °C
Cn1cc(C(C)(CNC(=O)c2cc(-c3cccn3C)on2)c2cccc(Cl)n2)cn1 (centres unmarked) [Compound P-81, N-[2-(6-chloro-2-pyridyl)-2-(1-methylpyrazol-4-yl)propyl]-5-(1-methylpyrrol-2-yl)isoxazole-3-carboxamide] | ≥ 80% | ≥ 80% | – | ≥ 80% | – | ≥ 80% | – | – | ≥ 80% | – | – | 111 to 113 °C
Cn1ncc(C(C)(CNC(=O)c2cc(-c3ccc(F)cc3F)on2)c2cccc(C#N)n2)c1Cl (centres unmarked) [Compound P-119, N-[2-(5-chloro-1-methyl-pyrazol-4-yl)-2-(6-cyano-2-pyridyl)propyl]-5-(2,4-difluorophenyl) isoxazole-3-carboxamide] | ≥ 80% | ≥ 80% | – | ≥ 80% | – | ≥ 80% | – | ≥ 80% | ≥ 80% | ≥ 80% | – | –

From patent US20240343717A1, “MICROBIOCIDAL PYRAZOLE DERIVATIVES” (SYNGENTA CROP PROTECTION AG, priority 2021, published 2024)
